biological target: ERK2 enzyme (Homo sapiens (Human), UniProt P28482); assay: Inhibition assay of ERK (Z'-LYTE kinase assay, Ser/Thr 3 peptide substrate); format: biochemical; details: In vitro ERK2 enzyme, 100 μM ATP
Experimental: The inhibition of ERK activity by the compounds disclosed herein was determined using the Z′-LYTE kinase assay kit (Life Technologies) with a Ser/Thr 3 peptide substrate (Life Technologies) according to manufacturers' instructions. […] The IC50 values for the compounds were determined with 3-fold serial dilutions in duplicate. […] The final DMSO concentration in the assay was 1%. Final reaction volume was 20 μL/well in 384-well plates. Kinase reactions were conducted or 1 hour followed by the assay development reaction (1 hour) in a 20 ul/well in a 384 well plate format.

Chain of ERK2 enzyme (P28482 whole entry): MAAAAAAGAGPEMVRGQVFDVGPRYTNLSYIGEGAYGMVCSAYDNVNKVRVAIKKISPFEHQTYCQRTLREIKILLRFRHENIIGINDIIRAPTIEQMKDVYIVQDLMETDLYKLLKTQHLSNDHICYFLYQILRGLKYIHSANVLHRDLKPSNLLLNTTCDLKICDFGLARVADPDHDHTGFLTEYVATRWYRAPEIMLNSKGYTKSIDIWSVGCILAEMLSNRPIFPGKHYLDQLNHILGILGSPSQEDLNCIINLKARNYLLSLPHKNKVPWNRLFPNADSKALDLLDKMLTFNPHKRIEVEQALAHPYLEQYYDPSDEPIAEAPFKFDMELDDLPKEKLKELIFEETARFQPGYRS

Compared with COc1cccc(F)c1CN1CCC(N2Cc3cc4c(-c5ccnnc5)n[nH]c4cc3NC2=O)CC1 [Compound 116], COc1ncc(-c2n[nH]c3cc4c(cc23)CN([C@@H]2CCCN(Cc3ccccc3F)C2)C(=O)N4)cn1 [Compound 101] is lower in IC50: 50 to 250 nM for the first, < 50 nM for the second.

Cc1cc(-c2n[nH]c3cc4c(cc23)CN([C@@H]2CCCN(Cc3cnn(C)c3)C2)C(=O)N4)ccn1 [Compound 133] and Cc1cc(-c2n[nH]c3cc4c(cc23)CN([C@@H]2CCCN(C)C2)C(=O)N4)ccn1 [Compound 33] cannot be ordered by IC50: < 50 nM for the first, < 50 nM for the second.

First: O=C1Nc2cc3[nH]nc(C4CC4)c3cc2CN1Cc1ccc(F)c(Cl)c1 [Compound 42]
Second: O=C1Nc2cc3[nH]nc(N4CCOCC4)c3cc2CN1Cc1cccc(Cl)c1 [Compound 78]
The IC50 of the first is higher: 50 to 250 nM for the first, < 50 nM for the second. The second is the more potent here.

Cc1cc(-c2n[nH]c3cc4c(cc23)CN(C2CN(Cc3ccccc3)C2)C(=O)N4)ccn1 [Compound 191] and Cc1cc(-c2n[nH]c3cc4c(cc23)CN([C@@H]2CCN(Cc3ccccc3)C2)C(=O)N4)ccn1 [Compound 146] cannot be ordered by IC50: < 50 nM for the first, < 50 nM for the second.

Cc1cc(-c2n[nH]c3cc4c(cc23)CN([C@@H]2CCCN(CC3(C)CC3)C2)C(=O)N4)ccn1 [Compound 182] and Cc1cc(-c2n[nH]c3cc4c(cc23)CN([C@@H]2CCCN(CCC(C)(C)C)C2)C(=O)N4)ccn1 [Compound 136] fall in the same range of IC50: 50 to 250 nM for the first, 50 to 250 nM for the second.

COc1ncc(-c2n[nH]c3cc4c(cc23)CN(CC2CCNCC2)C(=O)N4)cn1 [Compound 81] and COc1ncc(-c2n[nH]c3cc4c(cc23)CN(CC2CCN(CC3CC3)CC2)C(=O)N4)cn1 [Compound 82] fall in the same range of IC50: 250 to 1000 nM for the first, 250 to 1000 nM for the second.

COc1ncc(-c2n[nH]c3cc4c(cc23)CN(Cc2cc(F)cc(F)c2)C(=O)N4)cn1 [Compound 88] and Cc1cc(-c2n[nH]c3cc4c(cc23)CN(Cc2ccc(F)c(F)c2)C(=O)N4)ccn1 [Compound 13] cannot be ordered by IC50: < 50 nM for the first, < 50 nM for the second.

Cc1cc(-c2n[nH]c3cc4c(cc23)CN([C@@H]2CCCN(CCc3cccc(Cl)c3)C2)C(=O)N4)ccn1 [Compound 164] and Cc1cc(-c2n[nH]c3cc4c(cc23)CN([C@@H]2CCCN(CCc3ccccc3)C2)C(=O)N4)ccn1 [Compound 145] cannot be ordered by IC50: < 50 nM for the first, < 50 nM for the second.

Cc1cc(-c2n[nH]c3cc4c(cc23)CN(C2CCNCC2)C(=O)N4)ccn1 [Compound 34] and Cc1cc(-c2n[nH]c3cc4c(cc23)CN([C@@H]2CCCNC2)C(=O)N4)ccn1 [Compound 32] fall in the same range of IC50: 50 to 250 nM for the first, 50 to 250 nM for the second.

Cc1cc(-c2n[nH]c3cc4c(cc23)CN(Cc2cccc(Cl)c2)C(=O)N4)cc(C)n1 [Compound 77] and Cc1cc(-c2n[nH]c3cc4c(cc23)CN(CCNCc2ccccc2)C(=O)N4)ccn1 [Compound 149] cannot be ordered by IC50: < 50 nM for the first, < 50 nM for the second.

Compared with Cc1cc(-c2n[nH]c3cc4[nH]c(=O)n(Cc5ccc(F)c(Cl)c5)c(=O)c4cc23)ccn1 [Compound 15], Cc1cc(-c2n[nH]c3cc4[nH]c(=O)n(Cc5ccccc5)c4cc23)ccn1 [Compound 19] is lower in IC50: 50 to 250 nM for the first, < 50 nM for the second.

C[C@H](c1cccc(Cl)c1)N1Cc2cc3c(-c4ccnnc4)n[nH]c3cc2NC1=O [Compound 111] and COc1ncc(-c2n[nH]c3cc4c(cc23)CN([C@H](C)c2cccc(C#N)c2)C(=O)N4)cn1 [Compound 100] cannot be ordered by IC50: < 50 nM for the first, < 50 nM for the second.

Compared with Cc1cc(-c2n[nH]c3cc4c(cc23)CN([C@@H]2CCN(CCc3ccccc3)C2)C(=O)N4)ccn1 [Compound 153], Cc1cc(-c2n[nH]c3cc4c(cc23)CN([C@@H]2CCCN(CCc3ccc(F)cc3)C2)C(=O)N4)ccn1 [Compound 167] is higher in IC50: < 50 nM for the first, 50 to 250 nM for the second. The first is the more potent here.

Cc1cc(-c2n[nH]c3cc4c(cc23)CN([C@@H]2CCCN(Cc3cccc(F)c3F)C2)C(=O)N4)ccn1 [Compound 185] and Cc1cc(-c2n[nH]c3cc4c(cc23)CN([C@@H]2CCCN(Cc3cccnc3C(F)(F)F)C2)C(=O)N4)ccn1 [Compound 161] cannot be ordered by IC50: < 50 nM for the first, < 50 nM for the second.

COc1ccc(-c2n[nH]c3cc4c(cc23)CN(CCc2ccc(F)cc2)C(=O)N4)cn1 [Compound 79] and Cc1cc(-c2n[nH]c3cc4c(cc23)CN(CCNCc2ccc(F)cc2)C(=O)N4)ccn1 [Compound 175] cannot be ordered by IC50: < 50 nM for the first, < 50 nM for the second.

First: Cc1cc(-c2n[nH]c3cc4c(cc23)CN([C@@H]2CCCN(C(=O)c3ccccc3)C2)C(=O)N4)ccn1 [Compound 172]
Second: Cc1cc(-c2n[nH]c3cc4c(cc23)CN([C@@H]2CCCN(C(C)c3cccc(Cl)c3)C2)C(=O)N4)ccn1 (some centres unmarked) [Compound 180]
The IC50 of the first is lower: < 50 nM for the first, 50 to 250 nM for the second.

First: COc1ncc(-c2n[nH]c3cc4c(cc23)CN([C@@H]2CCCN(Cc3ccccc3)C2)C(=O)N4)cn1 [Compound 104]
Second: COc1ncc(-c2n[nH]c3cc4c(cc23)CN(C)CC(=O)N4)cn1 [Compound 109]
The IC50 of the first is lower: < 50 nM for the first, > 1000 nM for the second.

Work on CCC(=O)NCCN1Cc2cc3c(-c4cnc(OC)nc4)n[nH]c3cc2NC1=O [Compound 106] yielded an IC50 of 50 to 250 nM.

same assay, conditions: In vitro, ERK2 enzyme 0.47 ng/μL, 100 μM ATP

Cc1cc(-c2n[nH]c3cc4c(cc23)CN(Cc2cccs2)C(=O)N4)cc(C)n1 [Compound 227] and Cc1cc(-c2n[nH]c3cc4c(cc23)CN(Cc2ccccc2)C(=O)N4)cc(C)n1 [Compound 229] cannot be ordered by IC50: < 50 nM for the first, < 50 nM for the second.

Cc1ccc(-c2n[nH]c3cc4c(cc23)CN([C@@H]2CCCN(Cc3ccc(F)cc3F)C2)C(=O)N4)cn1 [Compound 284] and Cc1ncc(-c2n[nH]c3cc4c(cc23)CN([C@@H]2CCCN(Cc3ccc(F)cc3F)C2)C(=O)N4)cn1 [Compound 293] cannot be ordered by IC50: < 50 nM for the first, < 50 nM for the second.

Cc1cc(-c2n[nH]c3cc4c(cc23)CN([C@@H]2CN(CC(F)(F)F)C[C@H]2c2ccccc2)C(=O)N4)cc(C)n1 [Compound 339] and Cc1cc(-c2n[nH]c3cc4c(cc23)CN([C@@H]2CN(C)C[C@H]2c2ccccc2)C(=O)N4)cc(C)n1 (racemic) [Compound 248] cannot be ordered by IC50: < 50 nM for the first, < 50 nM for the second.

Cc1cc(-c2n[nH]c3cc4c(cc23)CN([C@@H]2CCCN(CC(F)(F)F)C2)C(=O)N4)cc(C)n1 [Compound 244] and Cc1cc(-c2n[nH]c3cc4c(cc23)CN([C@H]2CCN(CC(F)(F)F)C2)C(=O)N4)cc(C)n1 [Compound 310] cannot be ordered by IC50: < 50 nM for the first, < 50 nM for the second.

First: Cc1cc(-c2n[nH]c3cc4c(cc23)CN([C@@H]2CN(CC(F)(F)F)C[C@H]2c2ccc(F)cc2)C(=O)N4)ccn1 (racemic) [Compound 300]
Second: Cc1cc(-c2n[nH]c3cc4c(cc23)CN([C@@H]2CN(CC(F)(F)F)C[C@H]2c2ccccc2F)C(=O)N4)ccn1 (racemic) [Compound 311]
The IC50 of the first is lower: < 50 nM for the first, 50 to 250 nM for the second.

Cc1cc(-c2n[nH]c3cc4c(cc23)CN(C2CCCC2)C(=O)N4)cc(C)n1 [Compound 239] and Cc1cc(-c2n[nH]c3cc4c(cc23)CN(CC2CCOCC2)C(=O)N4)cc(C)n1 [Compound 250] cannot be ordered by IC50: < 50 nM for the first, < 50 nM for the second.

C=C(c1ccccc1)c1cc2cc3c(-c4ccnc(C)c4)n[nH]c3cc2[nH]c1=O [Compound 269] and CC(c1ccccc1)c1cc2cc3c(-c4ccnc(N)c4)n[nH]c3cc2[nH]c1=O (centres unmarked) [Compound 344] cannot be ordered by IC50: < 50 nM for the first, < 50 nM for the second.

COc1ccc(-c2n[nH]c3cc4c(cc23)CN([C@@H]2CCCN(Cc3ccccc3)C2)C(=O)N4)cn1 [Compound 272] and COc1cc(-c2n[nH]c3cc4c(cc23)CN([C@@H]2CCCN(Cc3ccccc3)C2)C(=O)N4)ccn1 [Compound 270] cannot be ordered by IC50: < 50 nM for the first, < 50 nM for the second.

Compared with Cc1cc(-c2n[nH]c3cc4[nH]c(=O)c(C5CCCN(Cc6ccccc6)C5)cc4cc23)ccn1 (centres unmarked) [Compound 332], Cc1ccc(-c2n[nH]c3cc4[nH]c(=O)c(C5CCCN(Cc6ccccc6)C5)cc4cc23)cn1 (centres unmarked) [Compound 373] is higher in IC50: < 50 nM for the first, 50 to 250 nM for the second.

Compared with CC(c1ccccc1)c1cc2cc3c(N4CCN(C)CC4)n[nH]c3cc2[nH]c1=O (centres unmarked) [Compound 358], CC(c1ccccc1)c1cc2cc3c(-c4ccnc(N5CCN(C)CC5)c4)n[nH]c3cc2[nH]c1=O (centres unmarked) [Compound 318] is lower in IC50: 50 to 250 nM for the first, < 50 nM for the second. The second is the more potent here.

Cn1cc(-c2n[nH]c3cc4c(cc23)CN([C@@H]2CN(CC(F)(F)F)C[C@H]2c2ccccc2)C(=O)N4)cn1 [Compound 352] and O=C1Nc2cc3[nH]nc(-c4ccncc4)c3cc2CN1[C@@H]1CN(CC(F)(F)F)C[C@H]1c1ccccc1 [Compound 342] cannot be ordered by IC50: < 50 nM for the first, < 50 nM for the second.

COc1ccc(-c2n[nH]c3cc4c(cc23)CN([C@@H]2CN(C)C[C@H]2c2ccccc2)C(=O)N4)cn1 (mixture of isomers) [Compound 353] and COc1ncc(-c2n[nH]c3cc4c(cc23)CN([C@@H]2CN(CC(F)(F)F)C[C@H]2c2ccccc2)C(=O)N4)cn1 [Compound 348] cannot be ordered by IC50: < 50 nM for the first, < 50 nM for the second.

Cc1cc(-c2n[nH]c3cc4c(cc23)CN([C@@H]2CN(C)C[C@H]2c2ccccc2F)C(=O)N4)cc(C)n1 (racemic) [Compound 306] and Cc1cc(-c2n[nH]c3cc4c(cc23)CN([C@@H]2CN(CCC#N)C[C@H]2c2ccccc2)C(=O)N4)ccn1 (mixture of isomers) [Compound 356] cannot be ordered by IC50: < 50 nM for the first, < 50 nM for the second.

Cc1cc(-c2n[nH]c3cc4c(cc23)CN(Cc2ccccc2Cl)C(=O)N4)ccn1 [Compound 217] and Cc1cc(-c2n[nH]c3cc4c(cc23)CN(Cc2ccccc2C(F)(F)F)C(=O)N4)ccn1 [Compound 218] cannot be ordered by IC50: < 50 nM for the first, < 50 nM for the second.

Cn1nccc1-c1n[nH]c2cc3c(cc12)CN([C@@H]1CCCN(Cc2ccccc2)C1)C(=O)N3 [Compound 261] and Cc1ncc(-c2n[nH]c3cc4c(cc23)CN([C@@H]2CCCN(Cc3ccccc3)C2)C(=O)N4)cn1 [Compound 292] cannot be ordered by IC50: < 50 nM for the first, < 50 nM for the second.

Cc1cc(-c2n[nH]c3cc4c(cc23)CN([C@@H]2CCCN(Cc3ccsc3)C2)C(=O)N4)ccn1 [Compound 252] and Cc1cc(-c2n[nH]c3cc4c(cc23)CN([C@@H]2CCCN(CC(=O)C(C)(C)C)C2)C(=O)N4)ccn1 [Compound 203] cannot be ordered by IC50: < 50 nM for the first, < 50 nM for the second.

With Cc1cc(-c2n[nH]c3cc4c(cc23)CN(C(C)C2CCCC2)C(=O)N4)ccn1 (centres unmarked) [Compound 294] the IC50 was < 50 nM.

Source: patent US9624228B2, “Inhibitors of ERK and methods of use” (KURA ONCOLOGY, INC., priority 2013, dated 2017)
